Laboratory results taken from patent US20240109855A1, “ANTI-QUORUM SENSING, ANTI-BIOFILM, AND INFLAMMATION ATTENUATING COMPOUNDS, COMPOSITIONS, AND METHODS OF USING SAME” (priority 2021, published 2024).
“Also recorded” adds a separate entry of the source. Read-outs that look alike come from different tables or passages of the source.

Columns and labels:
[1] = system: Chromobacterium violaceum (CV026); experiment: Quorum sensing inhibition test with bio-reporter CV026 (TLC overlay); type: cell-based; conditions: for Degree of QSI of CV026: Table 1, coumaperine derivatives, 40 mM in ~20 μL acetonitrile dried on TLC plate, overnight, color intensity; for QSI activity against CV026, in words: running text; for Degree of QSI of CV026: key: −: no inhibition; +: low inhibition; ++: medium inhibition; +++: strong inhibition; for Degree of quorum sensing inhibition (QSI), CV026: key: −: no inhibition; +: low inhibition; ++: medium inhibition; +++: strong inhibition
Experimental: (§1) TLC preparation: all derivatives were dissolved in 100% acetonitrile to a concentration of 40 mM. Then placed 20 μlon the same spot on the TLC and let the solvent evaporate before use. CV026: few colonies were transferred to liquid LB (Lenox) for overnight incubation at 30° C. in a 45 degree in orbital shaker. At the O.D. 0.8 3 ml of the starter was added to preheated soft LB agar containing 500 nM of 3-oxo-C6 (Sigma-Aldrich). The mixture was then loaded on the TLC in a glass plate for O.N. incubation in 30° C. The next day inhibition zone was measured, while QS is taking place bacteria produce purple pigment, and when QS is inhibited no pigment is produced. KYC55 (pJZ372) (pJZ384) (pJZ410): 20 μl from the frozen stock into 25 ml AT media (AT buffer×20: 1.57 M KH2PO4 pH=7.3. AT salts mix×20: 300 mM (NH4)2SO4, 13 mM MgSO4, 1.4 mM CaCl2, 0.4 mM FeSO4·7H2O, 0.26 mM MnSO4·H2O. AT media: 50 ml×20 AT-buffer, 50 ml×20 AT-salts, 10 ml 50% (w/v) glucose, add 890 ml to final volume of 1 liter.) For O.N. at 30° C. in an orbital shaker. Into preheated water agar with 25 ml AT-buffer, and 60 μg/ml X-gal and 5 nM 3-oxo-c8 (both from Sigma-Aldrich) 25 ml of the starter was added. Then, that mixture was loaded on the TLC in glass plate for O.N. incubation in 30° C. The next day the inhibition zone was measured. The bacteria produce blue pigment during QS and when QS is inhibited no pigment is produced. KYC55 (pJZ372) (pJZ384) (pJZ410) preservation in tetracycline (1 μg/ml), spectinomycin (100 μg/ml), gentamicin (100 μg/ml) (all antibiotics from Sigma Aldrich) in AT media O.N. then centrifuged and suspend in 15% glycerol frozen and maintained at −80° C.

[2] = system: Agrobacterium tumefaciens (KYC55); experiment: Quorum sensing inhibition test with bio-reporter KYC55 (TLC overlay); type: cell-based; conditions: for Degree of QSI of KYC55: Table 1, coumaperine derivatives, 40 mM in ~20 μL acetonitrile dried on TLC plate, overnight, color intensity; for QSI activity against KYC55, in words: running text; for Degree of QSI of KYC55: key: −: no inhibition; +: low inhibition; ++: medium inhibition; +++: strong inhibition; for Degree of quorum sensing inhibition (QSI), KYC55: key: −: no inhibition; +: low inhibition; ++: medium inhibition; +++: strong inhibition
Experimental: as §1

[3] = system: quorum sensing (CV026 and KYC55); experiment: Quorum sensing inhibition, overall statement over the bio-reporter bacteria; type: cell-based; conditions: for QSI: Table 6 summary; for QSI activity overall, in words: running text
Experimental: as §1
All the synthesized compounds were evaluated for quorum sensing inhibition against two bioreporter bacteria strains, Chromobacterium violaceum (CV026) and Agrobacterium tumefaciens (KYC55) and the results are summarized in Table 1.

[4] = system: gram-positive and gram-negative bacteria; experiment: Antibacterial activity, overall statement (diffusion discs test); type: cell-based; conditions: for Antibacterial: Table 6 summary; for Antibacterial activity, in words: running text
Experimental: All derivatives were dissolved in acetonitrile to a final concentration of 40 mM. Twenty (20) μl were loaded onto Whatman filter paper discs and dried. Bacillus subtilis, Staphylococcus aureus, and Acinetobacter baumannii were grown in LB (Lenox) O.N. One hundred (100) μl from the starter culture was plated on LB agar (Miller) dishes. Streptococcus sobrinus, and Streptococcus mutans grown in Brain Heary Infusion (BHI, Himedia) O.N. were similarly plated on BHI agar dishes. Discs were laid and incubated O.N. in 37° C. and the diameter of inhibition of bacterial growth was measured.
The antibacterial activities of derivatives showing QSI are outlined in Table 4. […] Similar to that idea, synthetic derivatives of furanon (product of marine algae) shown in-vivo QSI activity without antibacterial activity followed by immune response of the infected animal. Phenolic compounds decrease QS and virulence in PA01 and Chromobacterium violaceum. There is increasing number of studies, searching for compounds that targeting non-vital processes to combat bacteria.

NF-kB = experiment: NF-kB-luciferase reporter gene assay in L428 cells; type: cell-based, human; conditions: Table 6 summary; note: key: +: active; −: inactive
Experimental: FIG. 7 includes a vertical bar graph showing a dose response of NF-kB activation according to an NF-kB reporter gene luciferase assay. L428 cells were stably transfected with the NF-kB luciferase reporter gene. The cells were incubated with the compounds at different concentrations for 2 hours. […] The results represent the percentage of NF-kB activation as compared to vehicle (DMSO) treated cells. All samples were normalized to protein concentration. Mean+SD, Two-way ANOVA and Tukey's multiple comparison test. 95% confidence interval (p-values *≤0.0332, **≤0.0021, ***≤0.0002).
L428 cells stable transfectants with the luciferase NF-kB-Luc reporter gene were generated previously described (Ozer et al., 2009), and were maintained in 500 μg/ml of G418 (G418 disulfate salt, Sigma-Aldrich). The cells (5×10^5 /well in triplicate) were incubated for 2 hrs. in 1 ml of medium containing the solvent (DMSO) or different concentrations of the molecules tested. Cells were then harvested, lysed, and monitored by a luciferase reporter assay kit (Promega) according to the manufacturer's instructions. Measurements were carried out using a luminometer (Promega, GLOMAX™ 20/20 Luminometer). Data were normalized to the protein concentration in each lysate as measured by the Bradford method (BioRad) and normalized to the control. Experiments were repeated at least three times.

in vitro = experiment: in vitro
Experimental: (§2) The human Hodgkin's Lymphoma derived L428 cell line was used as a model. The cells were grown in RPMI Medium 1640 with 10% FBS, 1% Glutamine and pen-strep (all from Biological Industries, Israel). […] Thirty thousand (30,000) cells/well were placed in 96-well plates with the coumaperine derivatives at different concentrations or with vehicle (DMSO) at a final volume of 200 μl. The plates were incubated for 48 hrs. at 37° C. and 5% CO2 followed by the addition of 50 μl of the XTT reagent tetrazolium-formazan, (Biological Industries, Israel) was added for 2 hrs. at 37° C., 5% CO2. In living cells, mitochondria […] the tetrazolium-formazan salt, thereby generating a color absorbing product at 450 nm. Absorbance was measured at 450 nm and 650 nm in an enzyme-linked immunosorbent assay (ELISA) plate reader (Multiskan Spectrum, Version 1.2), and recorded. Absorption values at 650 nm were subtracted from the blank and the 450 nm values. The results were normalized to the control (treated with DMSO).
(§3) Viability was determined in triplicate in two independent tests. The results were normalized to vehicle (DMSO) treated cells, (100% viability). Mean+SD.

L428 cells = experiment: in vitro
Experimental: as §2, §3

[5] = Table 2, piperlongumine derivatives

COc1cc(CCC(=O)CC(=O)CCc2ccc(O)c(OC)c2)ccc1O [HCU, Tetrahydrocurcumin]
Degree of quorum sensing inhibition (QSI), CV026 ([1]; Table 3, curcumin derivatives): +
Degree of quorum sensing inhibition (QSI), KYC55 ([2]; Table 3, curcumin derivatives): +++
QSI [3]: +
Antibacterial [4]: −
Anti-inflammatory (NF-kB): +
CC50 at 48 h (in vitro): 102 µM
Cytotoxic activity, in words (L428 cells; L428 cells): cytotoxic
Cytotoxic (L428 cells; Table 6 summary): +

CC(=O)Oc1ccc(/C=C/C=C/C(=O)N2CCCCC2)cc1 [CP-158, 4-((1E,3E)-5-oxo-5-(piperidin-1-yl)penta-1,3-dienyl)phenyl acetate]
Degree of QSI of CV026 [1]: +++
QSI activity against CV026, in words [1]: more effective against CV026 than KYC55
Degree of QSI of KYC55 [2]: ++
QSI [3]: +
QSI activity overall, in words [3]: anti QS activity
Antibacterial [4]: −
Antibacterial activity, in words [4]: did not show antibiotic activity
Anti-inflammatory (NF-kB): +
CC50 at 48 h (in vitro; human, LC50): 285 µM
Cytotoxic (L428 cells): +
Cytotoxic activity, in words (L428 cells): not cytotoxic

O=C(/C=C/C=C/C=C/c1ccc2c(c1)OCO2)N1CCCCC1 [CP-155, (2E,4E,6E)-7-(benzo[d][1,3]dioxol-5-yl)-1-(piperidin-1-yl)hepta-2,4,6-trien-1-one]
Degree of QSI of CV026 [1]: −
QSI activity against CV026, in words [1]: inactive
Degree of QSI of KYC55 [2]: −
QSI activity against KYC55, in words [2]: inactive
QSI activity overall, in words [3]: do not inhibit

COc1ccc(/C=C/C=C/C(=O)N2CCCCC2)cc1 [CP-38, (2E,4E)-5-(4-methoxyphenyl)-1-(piperidin-1-yl)penta-2,4-dien-1-one]
Degree of QSI of CV026 [1]: ++
QSI activity against CV026, in words [1]: moderate
Degree of QSI of KYC55 [2]: +
QSI activity against KYC55, in words [2]: low
CC50 at 48 h (in vitro; human, LC50): 47.4 µM

COc1cc(/C=C/C=C/C(=O)N2CCCCC2)ccc1O [CP-205]
Degree of QSI of CV026 [1]: ++
QSI activity against CV026, in words [1]: moderate activity; also recorded: moderately active
Degree of QSI of KYC55 [2]: ++
QSI activity against KYC55, in words [2]: moderate activity; also recorded: moderately active
QSI [3]: +
Antibacterial [4]: −
Anti-inflammatory (NF-kB): +
Cytotoxic (L428 cells): −
Cytotoxic activity, in words (L428 cells): no cytotoxic activity
LC50 (L428 cells): Non-toxic

O=C(/C=C/c1ccc2c(c1)OCO2)N1CCCCC1 [CP-215, (E)-3-(benzo[d][1,3]dioxol-5-yl)-1-(piperidin-1-yl)prop-2-en-1-one]
QSI activity against CV026, in words [1]: highly active
QSI activity against KYC55, in words [2]: highly active
QSI [3]: +
QSI activity overall, in words [3]: active; also recorded: strong
QSI activity overall, in words ([3]; listed as CP215): anti QS activity
Antibacterial [4]: −
Antibacterial activity, in words [4]: did not show antibiotic activity
Anti-inflammatory (NF-kB): +
Cytotoxic (L428 cells): −
LC50 (L428 cells): Non-toxic

O=C(/C=C/c1ccc2c(c1)OCO2)N1CCCCC1 [CP-270, (E)-3-(benzo)-1-(piperidin-1-yl)prop-2-en-1-one]
Degree of QSI of CV026 [1]: +++
QSI activity against CV026, in words [1]: highly QSI active
Degree of QSI of KYC55 [2]: +++
QSI activity against KYC55, in words [2]: highly QSI active
Antibacterial activity, in words [4]: did not
Cytotoxic activity, in words (L428 cells): no cytotoxic activity
LC50 (L428 cells): Non-toxic

COc1cc(/C=C/C(=O)N2CCC=CC2=O)cc(OC)c1OC [PL, Piperlongumine, reference compound]
Degree of quorum sensing inhibition (QSI), CV026 [1, 5]: −
QSI activity against CV026, in words [1]: inactive
Degree of quorum sensing inhibition (QSI), KYC55 [2, 5]: −
QSI activity against KYC55, in words [2]: inactive
QSI activity overall, in words [3]: inactive

O=C(/C=C/c1ccc(F)cc1)N1CCCCC1 [CP-273]
Degree of QSI of CV026 [1]: +
QSI activity against CV026, in words [1]: low activity
Degree of QSI of KYC55 [2]: −
QSI activity against KYC55, in words [2]: inactive
QSI activity overall, in words [3]: low QSI
LC50 (L428 cells): Non-toxic

O=C(/C=C/c1ccc([N+](=O)[O-])cc1)N1CCCCC1 [CP-286]
Degree of QSI of CV026 [1]: +
QSI activity against CV026, in words [1]: low
Degree of QSI of KYC55 [2]: ++
QSI activity against KYC55, in words [2]: moderate
QSI [3]: +
QSI activity overall, in words [3]: anti QS activity
Antibacterial [4]: −
Antibacterial activity, in words [4]: did not show antibiotic activity
Anti-inflammatory (NF-kB): +
Cytotoxic (L428 cells): −
LC50 (L428 cells): Non-toxic

Piperine [reference compound]
Degree of QSI of CV026 [1]: −
QSI activity against CV026, in words [1]: inactive
Degree of QSI of KYC55 [2]: −
QSI activity against KYC55, in words [2]: inactive
QSI activity overall, in words [3]: do not inhibit
